Among the data in patent publication US9718790B2, “Triazine derivative and pharmaceutical composition having an analgesic activity comprising the same” (SHIONOGI & CO., LTD., priority 2010, dated 2017) are IC50 values, retold here.

The target of the first assay is human P2X3 receptor (Homo sapiens (Human), UniProt P56373). Nature of the assay: Evaluation of human P2X3 receptor inhibitory activity (Fluo-3 calcium fluorescence, FDSS 3000, ATP stimulation).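 Further: stimulus was 50 nM ATP with fluorescence followed for 3 min, and the response per well was peak post-ATP fluorescence divided by the reading at measurement start.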 Type of assay: cell-based. To be noted: C6BU-1 cells stably expressing human P2X3 receptor.
Sequence of human P2X3 receptor (P56373 whole entry): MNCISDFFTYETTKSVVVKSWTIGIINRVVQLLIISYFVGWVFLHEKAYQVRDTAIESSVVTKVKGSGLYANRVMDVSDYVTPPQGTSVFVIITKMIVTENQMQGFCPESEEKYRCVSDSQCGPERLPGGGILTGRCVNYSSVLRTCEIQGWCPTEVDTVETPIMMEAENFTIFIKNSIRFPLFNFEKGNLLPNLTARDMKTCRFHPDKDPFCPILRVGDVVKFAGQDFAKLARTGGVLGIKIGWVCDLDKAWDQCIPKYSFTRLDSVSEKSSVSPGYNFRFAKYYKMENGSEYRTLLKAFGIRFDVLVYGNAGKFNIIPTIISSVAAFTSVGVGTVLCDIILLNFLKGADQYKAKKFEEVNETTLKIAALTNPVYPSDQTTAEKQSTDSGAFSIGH
On to `COc1ncccc1Cn1c(=O)[nH]/c(=N\c2ccc(OC(C)C)c(F)c2)n(Cc2ccc(Cl)cc2)c1=O` [Compound I-0683], for which the half-maximal inhibitory concentration (IC50) (in general, the concentration that gives 50% inhibition) stood at 9 nM.

Regarding `Cc1cc(/N=c2\[nH]c(=O)n([C@H]3CCOC3=O)c(=O)n2Cc2ccc(Cl)cc2)ccc1OC(C)C` [Compound I-0775], the IC50 is 41 nM.

As for `Cc1ccc(Cn2c(=O)n([C@@H](C)[C@@H](C)C(=O)O)c(=O)[nH]/c2=N\c2ccc(CC(C)C)c(Cl)c2)cc1` [Compound I-1443], the IC50 was 6 nM.

For `CCc1nc2ccc(/N=c3\[nH]c(=O)n(CCCCC(=O)O)c(=O)n3Cc3ccc(Cl)cc3)cc2s1` [Compound I-2185], the 50% inhibitory concentration (IC50) worked out at 15 nM.

With `CCn1c(=O)[nH]/c(=N\c2ccc(Oc3ccc(N)nc3)cc2)n(Cc2ccc(Cl)cc2)c1=O` [Compound I-2214], the IC50 turned out to be 22 nM.

For the compound `Cc1ccc(Cn2c(=O)n([C@H](C)[C@H](C)C(=O)O)c(=O)[nH]/c2=N\c2ccc(OC(C)C)c(Cl)c2)cc1` [Compound I-1337], the IC50 was found to be 14 nM.

Regarding `Cc1[nH]c2ccc(/N=c3\[nH]c(=O)n(CCCO)c(=O)n3Cc3ccc(Cl)cc3)cc2c1C` [Compound I-1949], the IC50 was 5 nM.

For the compound `CCn1c(=O)[nH]/c(=N\c2ccc(Oc3ccccc3C(N)=O)cc2)n(Cc2ccc(Cl)cc2)c1=O` [Compound I-2009], the half-inhibitory concentration (IC50) worked out at 472 nM.

Consider `CCOC(=O)CC(C)(C)n1c(=O)[nH]/c(=N\c2ccc(OC(C)C)c(F)c2)n(Cc2ccc(Cl)cc2)c1=O` [Compound I-0822], for which the 50% inhibitory concentration (IC50) was determined as 26 nM.

As to `CC(C)Oc1ccc(/N=c2\[nH]c(=O)n(C[C@H]3COC(C)(C)O3)c(=O)n2Cc2ccc(Cl)cc2)cc1Cl` [Compound I-0633], the IC50 came out at 4 nM.

Turning to `CC(C)Oc1ccc(/N=c2\[nH]c(=O)n(C[C@H](C)C(=O)O)c(=O)n2Cc2ccc(F)cc2)cc1` [Compound I-0639], the concentration for half-maximal inhibition (IC50) is 216 nM.

For `COC(=O)[C@@H](C)Cn1c(=O)[nH]/c(=N\c2ccc3nc(C)oc3c2)n(Cc2ccc(C)cc2)c1=O` [Compound I-1276], the IC50 is 78 nM.

As to `CC1CCC(Cn2c(=O)n(CCO)c(=O)[nH]/c2=N\c2ccc(Oc3ccnc(O)c3)cc2)CC1` (stereo not drawn) [Compound I-2022], the IC50 amounted to 7 nM.

As for `CCOC(=O)CCn1c(=O)[nH]/c(=N\c2ccc(OC3CCC3)c(C)c2)n(Cc2ccc(Cl)cc2)c1=O` [Compound I-1401], the IC50 was found to be 22 nM.

With `Cc1nc2ccc(/N=c3\[nH]c(=O)n(C[C@H](C)C(=O)O)c(=O)n3Cc3ccc(Cl)cc3)cc2nc1C` [Compound I-1348], the IC50 came to 918 nM.

For the compound `CCn1c(=O)[nH]/c(=N\c2ccc3oc(C)c(CCO)c3c2)n(Cc2ccc(Cl)cc2)c1=O` [Compound I-2171], the IC50 was 296 nM.

As for `CCOC(=O)CCn1c(=O)[nH]/c(=N\c2ccc3[nH]c(C)c(C)c3c2)n(Cc2ccc(Cl)cc2)c1=O` [Compound I-1931], the IC50 was 9 nM.

For `COC(=O)[C@H](C)[C@H](C)n1c(=O)[nH]/c(=N\c2ccc(Oc3cccnc3)cc2)n(Cc2ccc(Cl)cc2)c1=O` [Compound I-1377], the IC50 was determined as 7 nM.

With `CCOc1ccc(/N=c2\[nH]c(=O)n(C[C@H](C)C(=O)O)c(=O)n2Cc2ccc(C)cc2)cc1F` [Compound I-0610], the IC50 is 35 nM.

In the case of `CCn1c(=O)[nH]/c(=N\c2ccc(Oc3cc(C(N)=O)on3)cc2)n(Cc2ccc(Cl)cc2)c1=O` [Compound I-2107], the 50% inhibitory concentration (IC50) was determined as 7 nM.

For `CNC(=NC#N)NCCn1c(=O)[nH]/c(=N\c2ccc(OC(C)C)c(F)c2)n(Cc2ccc(Cl)cc2)c1=O` [Compound I-0653, 1-(4-chlorobenzyl)-6-(3-fluoro-4-isopropoxyphenylimino)-3-(4-cyanoimino-4-methylamino-3-azabutyl)-1,3,5-triazinane-2,4-dion], the half-inhibitory concentration (IC50) is 37 nM.

In the case of `CCn1c(=O)[nH]/c(=N\c2ccc(Oc3cc(C(=O)OC)nc(Cl)n3)cc2)n(Cc2ccc(Cl)cc2)c1=O` [Compound I-2210], the 50% inhibitory concentration (IC50) came out at 14 nM.

For `COC(=O)[C@@H](C)[C@@H](C)n1c(=O)[nH]/c(=N\c2ccc(OC(C)C)c(F)c2)n(Cc2ccc(C)cc2)c1=O` [Compound I-1311], the concentration for half-maximal inhibition (IC50) came to 23 nM.

With `COC(=O)[C@@H](C)Cn1c(=O)[nH]/c(=N\c2ccc(OC3CCC3)cc2)n(Cc2ccc(Cl)cc2)c1=O` [Compound I-1281], the 50% inhibitory concentration (IC50) was 6 nM.

For the compound `CCCOc1ccc(/N=c2\[nH]c(=O)n(C[C@H](C)C(=O)OC)c(=O)n2Cc2ccc(Cl)cc2)cc1Cl` [Compound I-0743], the IC50 amounted to 13 nM.

The same assay, now with this note: C6BU-1 cells stably expressing human P2X3 receptor, Fluo-3 fluorescence, FDSS 3000.
As to `CCc1nc2ccc(/N=c3\[nH]c(=O)n(CCC(=O)NCCO)c(=O)n3Cc3ccc(Cl)cc3)cc2s1` [Compound I-1739], the IC50 turned out to be 7 nM.

Take `CCc1oc2ccc(/N=c3\[nH]c(=O)n(C[C@@H](C)NC(C)=O)c(=O)n3Cc3ccc(Cl)cc3)cc2c1C` [Compound I-1673]: the IC50 is 14 nM.

On to `Cc1ccc(Cn2c(=O)n(C[C@H](C)C(=O)O)c(=O)[nH]/c2=N\c2ccc(OC(F)(F)F)c(Cl)c2)cc1` [Compound I-1033], for which the IC50 came out at 67 nM.

Staying with this assay, now noted: human P2X3 receptor, Test Example 1.
On to `CCn1c(=O)[nH]/c(=N\c2ccc(Oc3cnc(C(N)=O)cn3)cc2)n(Cc2ccc(Cl)cc2)c1=O` [Compound I-2388], for which the IC50 was found to be 3 nM.

Consider `COCCn1c(=O)[nH]/c(=N\c2ccc(Oc3cccc(C(=O)O)n3)cc2)n(Cc2ccc(Cl)cc2)c1=O` [Compound I-2548], for which the 50% inhibitory concentration (IC50) stood at 6 nM.

For `CCn1c(=O)[nH]/c(=N\c2ccc([S+]([O-])c3ccc(C(=O)O)cc3)cc2)n(Cc2ccc(Cl)cc2)c1=O` (stereo not drawn) [Compound I-2631], the IC50 worked out at 475 nM.

In the case of `Cc1ccc(Cn2c(=O)n(CC3(C(=O)O)COC3)c(=O)[nH]/c2=N\c2ccc(CC(C)C)c(Cl)c2)cc1` [Compound I-1496], the IC50 turned out to be 9 nM.

Take `CCn1c(=O)[nH]/c(=N\c2ccc(Oc3cncc(C#N)c3)cc2)n(Cc2ccc(Cl)cn2)c1=O` [Compound I-2318]: the IC50 worked out at 18 nM.

On to `NC(=O)Cn1c(=O)[nH]/c(=N\c2ccc(Oc3ccnnc3)cc2)n(Cc2ccc(Cl)cc2)c1=O` [Compound I-2695], for which the IC50 is 10 nM.

As for `CNC(=O)CCn1c(=O)[nH]/c(=N\c2ccc3nc(C)sc3c2)n(Cc2ccc(Cl)cc2)c1=O` [Compound I-1543], the concentration for half-maximal inhibition (IC50) came out at 6 nM.

As to `CNC(=O)Cn1c(=O)[nH]/c(=N\c2ccc(Oc3nc(C)ns3)cc2)n(Cc2ccc(Cl)cc2)c1=O` [Compound I-2581], the IC50 amounted to 5 nM.

Consider `CCn1c(=O)[nH]/c(=N\c2ccc(Oc3cccc(C(N)=O)n3)cc2)n(Cc2ccc(Cl)cn2)c1=O` [Compound I-2240], for which the 50% inhibitory concentration (IC50) is 21 nM.

Turning to `CC[C@@H](Cn1c(=O)[nH]/c(=N\c2ccc(OC(C)C)c(C)c2)n(Cc2ccc(C)cc2)c1=O)C(=O)OC` [Compound I-0884], the half-inhibitory concentration (IC50) amounted to 16 nM.

In the case of `CCc1cc2cc(/N=c3\[nH]c(=O)n(CCCO)c(=O)n3Cc3ccc(Cl)cc3)ccc2o1` [Compound I-2336], the half-inhibitory concentration (IC50) was 10 nM.

For `O=C(O)Cn1c(=O)[nH]/c(=N\c2ccc(Oc3cccnn3)cc2)n(Cc2ccc(Cl)cc2)c1=O` [Compound I-2663], the IC50 amounted to 330 nM.

As to `Cc1ccc(Cn2c(=O)n(C[C@H](C)C(=O)O)c(=O)[nH]/c2=N\c2ccc(CC(C)(C)F)c(Cl)c2)cc1` [Compound I-1531], the half-maximal inhibitory concentration (IC50) was 25 nM.

With `CCn1c(=O)[nH]/c(=N\c2ccc(Oc3ccc(NC(=O)NC4CC4)nc3)cc2)n(Cc2ccc(Cl)cc2)c1=O` [Compound I-2243], the IC50 was 6 nM.
